Patent US10059721B2, “Substituted thieno[3,2-b]pyrazines for inhibiting cancer cell proliferation and inducing cancer cell apoptosis” (DONGGUK UNIVERSITY INDUSTRY-ACADEMIC COOPERATION FOUNDATION, priority 2014, dated 2018)

Experiments:
Assay type in all cases: cell-based
[1] = test system: MDA-MB-231 (breast cancer) cell line; experiment: Cell growth inhibition experiment (SRB), MDA-MB-231; conditions: Homo sapiens, incubated for 96 hours, read-out: IC50 (μM) of cancer cell lines MDA-MB-231
Description: (§1) The cell lines below were used in order to confirm the efficacy of the compounds synthesized in Examples 1 to 27. Human PANC-1 (pancreatic cancer) and MDA-MB-231 (breast cancer) cell lines were obtained from American Type Culture Collection (ATCC; Manassas, Va.); and HN31 (head and neck cancer) and UMRC2 (kidney cancer) cell lines were secured from the United States National Institutes of Health (Bethesda, Md.). The MDA-MB-231, UMRC2, HN31, and PANC-1 cell lines were cultured in Dulbecco modified Eagle medium (DMEM) containing FBS (10%), HEPES (10 mM), penicillin (100 U/mL), and streptomycin (100 μg/mL). All cell lines were cultured in an incubator (37° C., 5% CO2).
(§2) The 4-(aryl)-N-(2-alkoxythieno[3,2-b]pyrazin-3-yl)-piperazin-1-carboxamide derivative compounds synthesized according to Examples 1 to 27 of the present invention were treated with various human tissue-derived cancer cell lines cultured according to Experimental Example 1, and thus the inhibitory effect of the growth of human cancer cells was confirmed. The cell growth inhibition experiment was conducted using sulforhodamine B (SRB) technique (Skehan et al., J. National Cancer Institute, 1990, 82: 1107-1112). Specifically, each cell line was seeded in a 96-well plate at a density of 2 to 3×10^3 cells/well, cultured overnight, and then treated with the 4-(aryl)-N-(2-alkoxythieno[3,2-b]pyrazin-3-yl)-piperazin-1-carboxamide derivative compounds of the present invention. The experiment was repeated 3 times for each compound. Cells treated with each compound were additionally incubated for 96 hours, fixed with 10% trichloroacetic acid (TCA), and then left at 4° C. for 1 hour. The resultant was washed 3 times with distilled water. Thereafter, each cell was treated with 0.4% sulforhodamine B dissolved in 1% acetic acid, stained for 30 minutes, and then washed 4 times with 1% acetic acid. The resultant was dried in the air. After shaking the resultant in Tris solution (10 mM) for 5 minutes, the absorbance was measured at 530 nm using a Benchmark Plus Microplate reader (Bio-Rad Laboratories, Hercules, Calif.).
(§3) In order to convert the OD530 value to the number of viable cells per each well, the measured OD530 value was compared to the standard OD530-vs.-cell number curve of each cell line. The percent survival was calculated using the following formula: % survival=Nlive cells(test)/Nlive cells(control)×100
(§4) IC50 values were calculated by nonlinear regression analysis.

[2] = test system: UMRC2 (kidney cancer) cell line; experiment: Cell growth inhibition experiment (SRB), UMRC2; conditions: Homo sapiens, incubated for 96 hours, read-out: IC50 (μM) of cancer cell lines UMRC2
Description: as §1, §2, §3, §4

[3] = test system: PANC-1 (pancreatic cancer) cell line; experiment: Cell growth inhibition experiment (SRB), PANC-1; conditions: Homo sapiens, incubated for 96 hours, read-out: IC50 (μM) of cancer cell lines PANC-1
Description: as §1, §2, §3, §4

[4] = test system: HN31 (head and neck cancer) cell line; experiment: Cell growth inhibition experiment (SRB), HN31; conditions: Homo sapiens, incubated for 96 hours, read-out: IC50 (μM) of cancer cell lines HN31
Description: as §1, §2, §3, §4

A549 = experiment: Cell growth inhibition experiment (SRB), A549; conditions: Homo sapiens, incubated for 96 hours, read-out: IC50 (μM) of cancer cell lines A549
Description: as §2, §3, §4

HEK293 = experiment: Cell growth inhibition experiment (SRB), HEK293; conditions: Homo sapiens, incubated for 96 hours, read-out: IC50 (μM) of cancer cell lines HEK293
Description: as §2, §3, §4

HUVEC = experiment: Cell growth inhibition experiment (SRB), HUVEC; conditions: Homo sapiens, incubated for 96 hours, read-out: IC50 (μM) of cancer cell lines HUVEC
Description: as §2, §3, §4

HT29 = experiment: Cell growth inhibition experiment (SRB), HT29; conditions: Homo sapiens, HT-29, incubated for 96 hours, read-out: IC50 (μM) of cancer cell lines HT29
Description: as §2, §3, §4

SK-OV-3 = experiment: Cell growth inhibition experiment (SRB), SK-OV-3; conditions: Homo sapiens, incubated for 96 hours, read-out: IC50 (μM) of cancer cell lines SK-OV-3
Description: as §2, §3, §4

Row | Structure (SMILES) | IC50 [1] [µM] | IC50 [2] [µM] | IC50 [3] [µM] | IC50 [4] [µM] | IC50 (A549) [µM] | IC50 (HT29) [µM] | IC50 (SK-OV-3) [µM] | IC50 (HEK293) [µM] | IC50 (HUVEC) [µM]
1 | Cc1cc(C)cc(N2CCN(C(=O)Nc3nc4sccc4nc3OC(C)C)CC2)c1 [Example 17, 4-(3,5-dimethylphenyl)-N-(2-isopropoxythieno[3,2-b]pyrazin-3-yl)piperazin-1-carboxamide] | < 2.5 | < 2.5 | < 2.5 | < 2.5 | < 2.5 | < 2.5 | < 2.5 | < 2.5 | < 2.5
2 | CC(C)Oc1nc2ccsc2nc1NC(=O)N1CCN(c2cc(F)cc(F)c2)CC1 [Example 18, 4-(3,5-difluorophenyl)-N-(2-isopropoxythieno[3,2-b]pyrazin-3-yl)piperazin-1-carboxamide] | < 2.5 | < 2.5 | < 2.5 | < 2.5 | < 2.5 | < 2.5 | < 2.5 | < 2.5 | < 2.5
3 | COc1nc2ccsc2nc1NC(=O)N1CCN(c2cc(C)cc(OC(F)(F)F)c2)CC1 [Example 19, N-(2-methoxythieno[3,2-b]pyrazin-3-yl)-4-(3-methyl-5-(trifluoromethoxy)phenyl)piperazin-1-carboxamide] | < 2.5 | 0.25 | 0.58 | 1.12 | 1.52 | 0.71 | < 2.5 | 1.23 | 0.68
4 | COc1cc(C)cc(N2CCN(C(=O)Nc3nc4sccc4nc3OC)CC2)c1 [Example 21, 4-(3-methoxy-5-methylphenyl)-N-(2-methoxythieno[3,2-b]pyrazin-3-yl)piperazin-1-carboxamide] | 2.21 | 1.74 | 2.12 | < 2.5 | 1.63 | 1.85 | 1.85 | 1.25 | < 2.5
5 | COc1cc(F)cc(N2CCN(C(=O)Nc3nc4sccc4nc3OC)CC2)c1 [Example 22, 4-(3-fluoro-5-methoxyphenyl)-N-(2-methoxythieno[3,2-b]pyrazin-3-yl)piperazin-1-carboxamide] | 0.52 | 0.21 | 0.63 | 0.45 | 2.21 | 1.12 | 1.36 | 1.12 | 1.36
6 | COc1nc2ccsc2nc1NC(=O)N1CCN(c2cc(C)cc(F)c2)CC1 [Example 23, 4-(3-fluoro-5-methylphenyl)-N-(2-methoxythieno[3,2-b]pyrazin-3-yl)piperazin-1-carboxamide] | 0.36 | < 2.5 | 0.58 | 0.28 | 0.63 | 0.28 | 0.36 | 0.35 | 0.45
7 | COc1nc2ccsc2nc1NC(=O)N1CCN(c2cc(F)cc(OC(F)(F)F)c2)CC1 [Example 26, 4-(3-fluoro-5-(trifluoromethoxy)phenyl)-N-(2-methoxythieno[3,2-b]pyrazin-3-yl)piperazin-1-carboxamide] | < 2.5 | < 2.5 | < 2.5 | < 2.5 | < 2.5 | < 2.5 | < 2.5 | < 2.5 | < 2.5
8 | COc1nc2ccsc2nc1NC(=O)N1CCN(c2cc(F)cc(C(F)(F)F)c2)CC1 [Example 27, 4-(3-fluoro-5-(trifluoromethyl)phenyl)-N-(2-methoxythieno[3,2-b]pyrazin-3-yl)piperazin-1-carboxamide] | < 2.5 | < 2.5 | < 2.5 | < 2.5 | < 2.5 | < 2.5 | < 2.5 | < 2.5 | < 2.5

More lines, main results first:

Row | IC50 [1] [µM] | IC50 [2] [µM] | IC50 [3] [µM] | IC50 [4] [µM] | IC50 (A549) [µM] | IC50 (HT29) [µM] | IC50 (SK-OV-3) [µM] | Structure (SMILES) | IC50 (HEK293) [µM] | IC50 (HUVEC) [µM]
9 | 0.25 | < 2.5 | 0.36 | 0.36 | 0.15 | 0.62 | 0.22 | COc1nc2ccsc2nc1NC(=O)N1CCN(c2cc(OC(F)(F)F)cc(C(F)(F)F)c2)CC1 [Example 20, N-(2-methoxythieno[3,2-b]pyrazin-3-yl)-4-(3-(trifluoromethoxy)-5-(trifluoromethyl)phenyl)piperazin-1-carboxamide] | 0.12 | 0.21
10 | 0.12 | 0.36 | 0.44 | < 2.5 | 0.87 | 0.36 | 0.12 | COc1nc2ccsc2nc1NC(=O)N1CCN(c2cccc(OC(F)(F)F)c2)CC1 [Example 24, N-(2-methoxythieno[3,2-b]pyrazin-3-yl)-4-(3-(trifluoromethoxy)phenyl)piperazin-1-carboxamide] | 0.25 | < 2.5
11 | 0.15 | < 2.5 | 0.08 | 0.17 | 0.22 | 0.25 | 0.63 | COc1cc(OC(F)(F)F)cc(N2CCN(C(=O)Nc3nc4sccc4nc3OC)CC2)c1 [Example 25, 4-(3-methoxy-5-(trifluoromethoxy)phenyl)-N-(2-methoxythieno[3,2-b]pyrazin-3-yl)piperazin-1-carboxamide] | 0.36 | 0.13
